Experimental data from ChEMBL document CHEMBL1201862, “PubChem BioAssay data set” (2004).
Calls of active or inactive are those of the source.

What was measured:
Streptococcus = test: GAS UMAA2166 growth inhibition – luminescence, BacTiterGlo, counter-screen for streptokinase expression inhibitor project, dose response (AID 1915); assay type: functional, organism-based;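 note: potency for reduction of bacterial viability or growth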
Orexin receptor type 2 [1] = target: T1, Orexin receptor type 2 (Homo sapiens, UniProt O43614); test: Counterscreen assay for antagonists of the orexin 1 receptor (OX1R; HCRTR1): Homogeneous Time Resolved Fluorescence (HTRF)-based cell-based dose response assay for antagonists of the orexin 2 receptor (OX2R; HCRTR2), run by assay provider.; assay type: functional
[2] = target: T2, Orexin/Hypocretin receptor type 1 (Homo sapiens, UniProt O43613); test: Fluorescence-based cell-based high throughput dose response assay for antagonists of the orexin 1 receptor (OX1R; HCRTR1). [Related pubchem assays (depositor defined):AID434989, AID435008, AID463079, AID485270, AID492963, AID492964, AID492965, AID493232, AID504717, AID504718]; assay type: functional
[3] = Counterscreen for antagonists of the orexin 1 receptor (OX1R; HCRTR1): Fluorescence-based cell-based high throughput dose response assay to identify antagonists of the parental CHO cell line. [Related pubchem assays (depositor defined):AID434989, AID435008, AID463079, AID485270, AID492963, AID492964, AID492965, AID493232, AID504699, AID504701]; assay type: functional
[4] = system: Streptococcus sp. 'group A'; test: Streptococcus pyogenes SK(-)GAS viability under kanamycin – luminescence, BacTiterGlo, confirmation, counter-screen for streptokinase expression inhibitor project, dose response (AID 1900); assay type: functional, organism-based
[5] = target: T2, Orexin/Hypocretin receptor type 1; test: Homogeneous Time Resolved Fluorescence (HTRF)-based cell-based high throughput dose response assay for antagonists of the orexin 1 receptor (OX1R; HCRTR1). [Related pubchem assays (depositor defined):AID434989, AID435008, AID463079, AID485270, AID492963, AID492964, AID492965, AID493232, AID504717, AID504718]; assay type: functional
CHO-K1 = test: Counterscreen for antagonists of the orexin 1 receptor (OX1R; HCRTR1): Homogeneous time resolved fluorescence (HTRF)-based cell-based dose response assay to identify antagonists of the parental CHO-K1 cell line. [Related pubchem assays (depositor defined):AID434989, AID435008, AID463079, AID485270, AID492963, AID492964, AID492965, AID493232, AID504699, AID504701]; assay type: functional; conditions: Cricetulus griseus;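 note: potency for inhibition of ATP-stimulated IP1 production as antagonists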
Orexin receptor type 2 [6] = target: T1, Orexin receptor type 2; test: Counterscreen assay for antagonists of the orexin 1 receptor (OX1R; HCRTR1): Fluorescence-based cell-based dose response assay for antagonists of the orexin 2 receptor (OX2R; HCRTR2), run by assay provider.; assay type: functional
[7] = target: Latent membrane protein 1 (Human herpesvirus 4 (strain B95-8), UniProt P03230); test: LMP1 TES1 pathway selectivity over dsRED control – imaging, HEK293T, dual-color eGFP/dsRED, cherry-picks, selectivity assay for LMP1 NF-kB inhibitor project, dose response (AID 588398); assay type: functional, cell-based
[8] = target: T3, Acyl-homoserine lactone acylase PvdQ (Pseudomonas aeruginosa (strain LESB58), UniProt Q9I194); test: PvdQ acylase enzyme activity blockers – biochemical, fluorescence, plate reader and imaging, cherry-picks, dose response (AID 493231)
T3 sequence (Q9I194 whole entry): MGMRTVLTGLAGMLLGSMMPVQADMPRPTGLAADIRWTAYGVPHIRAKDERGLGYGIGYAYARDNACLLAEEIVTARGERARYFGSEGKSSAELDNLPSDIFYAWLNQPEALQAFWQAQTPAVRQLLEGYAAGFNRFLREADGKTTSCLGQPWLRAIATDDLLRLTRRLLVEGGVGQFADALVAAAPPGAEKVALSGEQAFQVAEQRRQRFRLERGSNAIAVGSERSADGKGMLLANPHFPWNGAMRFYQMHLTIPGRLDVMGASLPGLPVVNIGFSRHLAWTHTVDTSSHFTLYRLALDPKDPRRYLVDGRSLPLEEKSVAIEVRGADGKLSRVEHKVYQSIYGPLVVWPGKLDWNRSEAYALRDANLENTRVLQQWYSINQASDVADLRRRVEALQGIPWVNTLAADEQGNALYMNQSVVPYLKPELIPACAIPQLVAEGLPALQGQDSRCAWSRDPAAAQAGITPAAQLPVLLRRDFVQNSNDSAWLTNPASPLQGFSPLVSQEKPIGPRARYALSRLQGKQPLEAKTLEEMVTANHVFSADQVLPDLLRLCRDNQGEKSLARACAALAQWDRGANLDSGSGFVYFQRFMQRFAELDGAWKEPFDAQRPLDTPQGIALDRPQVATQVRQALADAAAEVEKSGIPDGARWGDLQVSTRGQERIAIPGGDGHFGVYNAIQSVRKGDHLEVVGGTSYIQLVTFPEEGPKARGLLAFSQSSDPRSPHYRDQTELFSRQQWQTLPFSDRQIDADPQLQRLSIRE

HEK293 [9] = test: EBV LMP1 TES2 canonical NF-kB signalling blockers – cell-based, HEK293, luciferase, cherry-pick, dose response (AID 588343); assay type: functional; conditions: Homo sapiens
[10] = Luminescence Cell-Based Dose Response Follow up to Identify Inhibitors of Platelet Dense Granule Release. [Related pubchem assays (depositor defined):AID1663, AID1678, AID2398]; assay type: functional
HEK293 [11] = test: HEK293T cell viability loss, resazurin readout – resazurin fluorescence, cytotoxicity control for NF-kB activator project, SAR follow-up (AID 493251); assay type: functional, cell-based; conditions: Homo sapiens
Jurkat = test: SAR Analysis of small molecule inhibitors of T-cell specific antigen receptor-induced NF-kB activation in a Jurkat cell line using a luminescence assay. [Related pubchem assays (depositor defined):AID435003, AID435012, AID465]; assay type: functional, cell-based; conditions: Homo sapiens
HEK293 [12] = test: SAR Analysis of small molecule inhibitors of T-cell specific antigen receptor-induced NF-kB activation in a HEK-293T cell line using a luminescence assay. [Related pubchem assays (depositor defined):AID435003, AID435012, AID489026]; assay type: functional, cell-based; conditions: Homo sapiens
INS1 [13] = test: beta-cell survival under cytokine stress – INS-1E, ATP luminescence, dry powder, dose response (AID 488844); assay type: functional, cell-based; conditions: Rattus norvegicus
[14] = suppression of NO production in INS-1E cells – cell-based, Griess absorbance, dry powder, set 3, dose response (AID 488870); assay type: functional; conditions: Rattus norvegicus
INS1 [15] = test: suppression of NO production in INS-1E cells – cell-based, Griess absorbance, dry powder, set 2, dose response (AID 488868); assay type: functional; conditions: Rattus norvegicus
[16] = target: T4, Sentrin-specific protease 8 (Homo sapiens, UniProt Q96LD8); test: inhibition of sentrin protease 8 – biochemical, luminescence, set 2, SAR follow-up (AID 588601); assay type: functional
T4 sequence (Q96LD8 whole entry): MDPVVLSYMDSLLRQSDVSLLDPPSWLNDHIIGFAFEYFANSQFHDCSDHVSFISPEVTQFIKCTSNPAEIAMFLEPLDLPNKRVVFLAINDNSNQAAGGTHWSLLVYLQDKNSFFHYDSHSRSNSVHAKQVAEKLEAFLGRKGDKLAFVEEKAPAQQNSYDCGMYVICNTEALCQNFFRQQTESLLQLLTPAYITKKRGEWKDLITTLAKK

[17] = target: T5, Sentrin-specific protease 7 (Homo sapiens, UniProt Q9BQF6); test: inhibition of human SENP7 cleavage activity – biochemical, luminescence, set 2, SAR follow-up (AID 588600); assay type: functional
T5 sequence (Q9BQF6 whole entry): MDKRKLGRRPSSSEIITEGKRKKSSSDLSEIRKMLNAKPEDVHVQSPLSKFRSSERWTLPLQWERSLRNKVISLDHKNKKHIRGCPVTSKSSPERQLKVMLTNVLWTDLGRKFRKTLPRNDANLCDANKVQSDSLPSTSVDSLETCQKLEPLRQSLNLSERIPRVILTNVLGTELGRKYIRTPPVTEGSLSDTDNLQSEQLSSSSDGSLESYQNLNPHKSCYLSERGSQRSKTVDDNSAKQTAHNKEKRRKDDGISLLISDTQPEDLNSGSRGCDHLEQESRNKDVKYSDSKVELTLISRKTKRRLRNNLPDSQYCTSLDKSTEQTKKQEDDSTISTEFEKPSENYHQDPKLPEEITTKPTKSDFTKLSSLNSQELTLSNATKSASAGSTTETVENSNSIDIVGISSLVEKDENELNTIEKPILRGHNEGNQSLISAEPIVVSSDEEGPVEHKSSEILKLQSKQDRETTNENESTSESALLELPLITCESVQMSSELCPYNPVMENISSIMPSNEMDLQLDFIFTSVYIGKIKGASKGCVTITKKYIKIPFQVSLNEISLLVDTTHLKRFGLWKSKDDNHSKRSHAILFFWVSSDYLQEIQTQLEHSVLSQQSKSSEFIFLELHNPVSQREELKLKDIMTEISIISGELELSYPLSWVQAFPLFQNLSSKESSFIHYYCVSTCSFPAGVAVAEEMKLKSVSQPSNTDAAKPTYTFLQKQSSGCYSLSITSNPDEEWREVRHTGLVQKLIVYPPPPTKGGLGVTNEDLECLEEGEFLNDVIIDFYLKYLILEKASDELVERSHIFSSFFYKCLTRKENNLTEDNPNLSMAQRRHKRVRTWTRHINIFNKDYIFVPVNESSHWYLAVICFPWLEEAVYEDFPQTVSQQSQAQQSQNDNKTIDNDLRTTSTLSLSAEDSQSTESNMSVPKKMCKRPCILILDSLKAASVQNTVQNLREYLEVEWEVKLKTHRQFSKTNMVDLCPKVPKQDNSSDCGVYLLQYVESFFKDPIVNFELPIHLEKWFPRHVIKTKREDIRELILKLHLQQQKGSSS

[18] = target: T6, Sentrin-specific protease 6 (Homo sapiens, UniProt Q9GZR1); test: inhibition of human SENP6 catalytic domain – biochemical, luminescence, set 2, SAR follow-up (AID 588598); assay type: functional
T6 sequence (Q9GZR1 whole entry): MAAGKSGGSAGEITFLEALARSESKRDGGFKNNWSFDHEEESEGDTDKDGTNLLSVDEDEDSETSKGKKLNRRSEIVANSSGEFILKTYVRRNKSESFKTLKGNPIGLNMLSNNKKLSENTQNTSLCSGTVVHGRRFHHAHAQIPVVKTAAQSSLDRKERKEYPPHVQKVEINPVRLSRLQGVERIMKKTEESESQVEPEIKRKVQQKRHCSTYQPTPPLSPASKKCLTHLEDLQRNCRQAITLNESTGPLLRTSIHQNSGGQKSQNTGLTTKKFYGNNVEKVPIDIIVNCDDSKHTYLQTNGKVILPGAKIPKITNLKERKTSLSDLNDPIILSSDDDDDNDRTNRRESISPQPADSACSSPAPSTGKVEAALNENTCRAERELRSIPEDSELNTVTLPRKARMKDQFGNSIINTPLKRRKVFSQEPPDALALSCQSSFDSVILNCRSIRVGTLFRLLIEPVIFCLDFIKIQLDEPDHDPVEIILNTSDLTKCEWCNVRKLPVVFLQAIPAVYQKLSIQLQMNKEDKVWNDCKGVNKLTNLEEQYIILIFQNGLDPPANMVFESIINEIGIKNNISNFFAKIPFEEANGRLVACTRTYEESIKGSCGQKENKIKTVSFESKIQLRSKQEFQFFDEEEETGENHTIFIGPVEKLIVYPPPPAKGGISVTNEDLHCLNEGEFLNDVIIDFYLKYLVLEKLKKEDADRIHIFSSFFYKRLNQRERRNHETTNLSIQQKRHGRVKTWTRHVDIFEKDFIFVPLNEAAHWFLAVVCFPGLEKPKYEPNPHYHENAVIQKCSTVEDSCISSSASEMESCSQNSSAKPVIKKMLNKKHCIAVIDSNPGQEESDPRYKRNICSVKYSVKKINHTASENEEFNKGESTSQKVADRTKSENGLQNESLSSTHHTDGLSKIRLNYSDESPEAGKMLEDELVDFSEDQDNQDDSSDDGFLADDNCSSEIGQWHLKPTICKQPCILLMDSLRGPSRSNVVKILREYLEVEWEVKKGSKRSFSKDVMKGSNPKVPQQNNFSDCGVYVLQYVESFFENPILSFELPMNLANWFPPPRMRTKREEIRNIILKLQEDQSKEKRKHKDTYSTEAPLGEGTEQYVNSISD

Caspase-3 = target: T7, Caspase-3 (Homo sapiens, UniProt P42574); test: inhibition of recombinant caspase-3 activity – biochemical, luminescence, set 2, selectivity assay for SENP protease inhibitor project, SAR follow-up (AID 588599); assay type: functional
T7 sequence (P42574 whole entry): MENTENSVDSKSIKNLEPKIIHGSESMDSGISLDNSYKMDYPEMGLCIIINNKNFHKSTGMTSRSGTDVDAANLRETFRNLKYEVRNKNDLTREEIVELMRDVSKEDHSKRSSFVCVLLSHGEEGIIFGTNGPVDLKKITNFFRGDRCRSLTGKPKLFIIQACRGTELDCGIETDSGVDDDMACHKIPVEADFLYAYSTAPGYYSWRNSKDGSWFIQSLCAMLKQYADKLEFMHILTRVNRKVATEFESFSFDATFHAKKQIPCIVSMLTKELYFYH

T1 sequence (O43614 whole entry): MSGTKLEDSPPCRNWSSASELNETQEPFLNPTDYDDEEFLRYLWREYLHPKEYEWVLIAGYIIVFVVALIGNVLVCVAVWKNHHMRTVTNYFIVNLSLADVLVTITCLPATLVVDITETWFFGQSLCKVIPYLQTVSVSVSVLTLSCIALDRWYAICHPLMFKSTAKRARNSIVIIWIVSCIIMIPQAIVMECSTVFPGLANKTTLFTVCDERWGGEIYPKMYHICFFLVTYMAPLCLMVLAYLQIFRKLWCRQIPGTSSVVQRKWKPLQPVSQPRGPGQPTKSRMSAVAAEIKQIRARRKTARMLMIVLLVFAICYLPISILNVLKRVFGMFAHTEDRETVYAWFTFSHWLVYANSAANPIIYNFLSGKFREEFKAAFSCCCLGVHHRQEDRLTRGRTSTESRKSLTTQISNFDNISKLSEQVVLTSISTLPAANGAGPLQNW
T2 sequence (O43613 whole entry): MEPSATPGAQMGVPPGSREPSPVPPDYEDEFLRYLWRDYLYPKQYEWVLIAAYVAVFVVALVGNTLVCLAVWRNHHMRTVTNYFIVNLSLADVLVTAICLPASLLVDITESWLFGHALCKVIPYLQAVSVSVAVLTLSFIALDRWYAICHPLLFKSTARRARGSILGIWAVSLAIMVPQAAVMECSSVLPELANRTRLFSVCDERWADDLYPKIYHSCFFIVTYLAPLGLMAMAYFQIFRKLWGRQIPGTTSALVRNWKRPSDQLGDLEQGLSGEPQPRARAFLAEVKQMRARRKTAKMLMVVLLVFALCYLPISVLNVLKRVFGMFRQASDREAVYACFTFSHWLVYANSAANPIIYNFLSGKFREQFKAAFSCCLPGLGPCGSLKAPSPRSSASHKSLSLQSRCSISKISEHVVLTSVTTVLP
Chain of Latent membrane protein 1 (P03230 whole entry): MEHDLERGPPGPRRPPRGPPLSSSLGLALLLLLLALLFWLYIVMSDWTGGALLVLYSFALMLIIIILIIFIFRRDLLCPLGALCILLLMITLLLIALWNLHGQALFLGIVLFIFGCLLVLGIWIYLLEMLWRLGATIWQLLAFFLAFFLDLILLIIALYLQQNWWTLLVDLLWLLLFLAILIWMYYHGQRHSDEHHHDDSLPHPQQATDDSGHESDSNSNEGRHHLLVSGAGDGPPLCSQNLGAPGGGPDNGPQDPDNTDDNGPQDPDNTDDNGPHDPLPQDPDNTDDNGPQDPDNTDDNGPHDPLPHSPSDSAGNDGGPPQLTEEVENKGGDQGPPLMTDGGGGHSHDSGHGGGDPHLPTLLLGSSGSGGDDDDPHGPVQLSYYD

CCSc1nnc(NC(=O)c2ccc3ccccc3n2)s1
EC50 (Streptococcus): 6.46 µM (active)
IC50 (Orexin receptor type 2 [1]): > 50 µM (inactive)
IC50 [2]: 6.86 µM (active)
IC50 [3]: > 49.7 µM (inactive)
EC50 [4]: 2.08 µM (active)
IC50 [5]: 2.67 µM (active)
IC50 (CHO-K1): > 66.2 µM (inactive)
IC50 (Orexin receptor type 2 [6]): > 88.8 µM (inactive)

Cc1cc(NC(=O)c2ccc3c(c2)OCCO3)no1
AC50 [7]: 32.7 µM (active)
AC50 [8]: 49.6 µM (active)
AC50 (HEK293 [9]): 4.15 µM (active)

CC(=O)N/N=C(\C)c1ccc(NC(=O)C2CC2)cc1
EC50 [10]: 500 µM (inactive)

COc1cccc(C(=O)Nc2ccc3[nH]c(-c4cccc(OC)c4)cc(=O)c3c2)c1
IC50 (HEK293 [11]): 42.2 µM (inactive)
IC50 (Jurkat): > 79 µM (inactive)
IC50 (HEK293 [12]): > 79 µM (inactive)

C[C@@H]1CN([C@@H](C)CO)C(=O)c2cccc(NC(=O)Nc3cccc4ccccc34)c2O[C@H]1CN(C)S(=O)(=O)c1ccc2c(c1)OCO2
AC50 (INS1 [13]): 49.4 µM (active)
AC50 [14]: > 195 µM (inactive)
AC50 (INS1 [15]): 29.8 µM (active)

O=C(N/N=C/c1c[nH]c2ccccc12)C1CC1c1ccccc1 (configuration not stated)
IC50 [16]: > 99 µM (inactive)
IC50 [17]: > 99 µM (inactive)
IC50 [18]: > 99 µM (inactive)
IC50 (Caspase-3): > 99 µM (inactive)
